{"source": "patent US20210177814A1", "about": "“USE OF GUANABENZ OR DERIVATES THEREOF FOR THE TREATMENT OF TYPE I IFN-DEPENDENT PATHOLOGIES” (INSERM (Institut National de la Santé et de la Recherche …, priority 2018, published 2021)", "target": "T1, TLR9 (Mus musculus, UniProt Q9EQU3)", "T1 construct": "from tissue; host or cells: whole animal: C57BL/6, FVB and FVB GADD34ΔC/ΔC mice", "T1 sequence (Q9EQU3 26-1032)": "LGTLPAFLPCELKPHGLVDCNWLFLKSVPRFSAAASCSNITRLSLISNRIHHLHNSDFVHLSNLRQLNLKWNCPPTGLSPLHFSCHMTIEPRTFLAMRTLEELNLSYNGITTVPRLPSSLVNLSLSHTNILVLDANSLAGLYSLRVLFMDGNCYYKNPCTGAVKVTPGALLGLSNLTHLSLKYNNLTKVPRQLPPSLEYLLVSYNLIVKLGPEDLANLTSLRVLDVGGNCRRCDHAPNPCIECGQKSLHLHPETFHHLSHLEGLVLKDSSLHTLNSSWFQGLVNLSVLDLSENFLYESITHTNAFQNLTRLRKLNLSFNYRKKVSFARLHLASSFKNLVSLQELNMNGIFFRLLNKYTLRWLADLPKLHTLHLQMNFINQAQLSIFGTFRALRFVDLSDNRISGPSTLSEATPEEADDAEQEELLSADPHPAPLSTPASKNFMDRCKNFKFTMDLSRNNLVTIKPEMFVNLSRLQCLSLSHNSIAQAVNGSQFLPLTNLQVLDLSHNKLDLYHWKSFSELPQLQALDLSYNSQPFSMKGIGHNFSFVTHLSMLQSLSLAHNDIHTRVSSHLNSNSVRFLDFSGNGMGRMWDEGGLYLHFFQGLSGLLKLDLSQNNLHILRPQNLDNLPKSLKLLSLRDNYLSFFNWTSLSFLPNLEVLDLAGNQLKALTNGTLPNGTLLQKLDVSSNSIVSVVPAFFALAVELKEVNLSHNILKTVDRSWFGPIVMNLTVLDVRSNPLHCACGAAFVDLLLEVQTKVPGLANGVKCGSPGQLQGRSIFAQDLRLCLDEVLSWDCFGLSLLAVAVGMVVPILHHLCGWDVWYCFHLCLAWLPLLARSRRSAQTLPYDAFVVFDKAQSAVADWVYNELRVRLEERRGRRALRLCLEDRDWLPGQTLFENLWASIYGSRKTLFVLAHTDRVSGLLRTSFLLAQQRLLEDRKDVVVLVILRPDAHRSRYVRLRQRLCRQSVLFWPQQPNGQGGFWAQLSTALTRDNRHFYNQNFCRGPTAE", "experiment": "D-galN/CpG ODN 1826 cytokine shock model", "format": "in vivo", "protocol": "WT and GADD34^ΔC/ΔC mice were injected with D-galN (20 mg/mouse), CpG ODN 1826 or PBS for control mice (50 μg/20 g), GBZ or clonidine (2 mg/kg). (A) Survival of C57/BL6 mice is represented as total percentage of survival after 48 h or in a Kaplan-Meier plot. (B) Survival of FVB (WT) and FVB GADD34^ΔC/ΔC mice is represented as total percentage of survival after 48 h or in a Kaplan-Meier plot. (C) The concentration of circulating TNF-α, IL-10 and IL-6 in C57/BL6 mice was measured after 1 h and/or 3 h of CpG ODN 1826. (D) Liver tissue damage and histology score were blindly determined by a professional anatomopathologist. Statistical significance was assigned on sample comparison by a one-way ANOVA, followed by Tukey range test and on the survival curve using log-rank test, followed by Benjamini-Yekutieli correction (* p<0.05; ** p<0.005; ***p<0.0005.).\nWild type female mice C57BL/6 of 8 weeks of age were injected i.p. with 2 mg/kg of GBZ, clonidine or PBS/DMSO. One hour later, they were injected i.p. with 20 mg/mouse of d-GalN and ODN 1826 50 μg/20 g (or PBS). Mice survival was checked every 12 hours for up to 48 hours. For some experiments, blood sera were collected 1 and 3 h after the injection of D-galN. The serum was used to measure circulating cytokines (TNFα, IL-6, IFNβ IL-10, IL-12). For some experiments, the liver was collected for immunohistochemistry after two days. For i.p. injections, 1 ml syringes and 25 gauge needles were used. Blood was collected from the cheek with a 18 gauge needle; for the TMPD model, no more than 200 μL were collected each time, respecting the ethic statement.\nMouse kidney and liver were fixed in 10% buffered formalin for 24 h, then the tissues were dehydrated and embedded in paraffin. Tissue sections of 3.5 μm were cut using the microtom Leica RM2245. Hematoxylin-eosin staining was effectuated automatically with Leica autostainer XL. Finally, the slides were mounted with entellan and kept at room temperature. Biopsies were analyzed by an anatomopathologist and the clinical score was assigned in a blinded way. Pictures were taken with Nikon Eclipse.\n• a) Lobular inflammation • 0—no inflammation, 1—mild lobular inflammation (<10% of liver parenchyma), 2—moderate lobular inflammation (10-50% of liver parenchyma), 3—severe lobular inflammation (>50% of liver parenchyma) • b) Portal inflammation • 0—no portal inflammation, 1—mild portal inflammation (<⅓ of portal tracts), 2—moderate portal inflammation (approximately 50% of portal tracks), 3—severe portal inflammation (>⅔ of portal tracts) • Portal and lobular inflammation score are added=inflammation score • c) Necrosis • 0—No necrosis, 1—<10% necrosis of liver parenchyma, 2—10-25% necrosis of liver parenchyma, 3—25% necrosis of liver parenchyma • Inflammation score and necrosis score are added=Total histologic score", "key": {"[1]": {"conditions": "WT mice, 1 hour after CpG injection, 2 mg/kg"}, "[2]": {"conditions": "WT mice, 3 h after CpG injection, 2 mg/kg"}}, "data": [{"molecule": "Clc1cccc(Cl)c1NC1=NCCN1", "note": "[clonidine, N-(2,6-dichlorophényl)-4,5-dihydro-1H-imidazol-2-amine]", "values": [{"measurement": "survival after 48 h", "setting": "C57BL/6 WT mice, D-galN + CpG ODN 1826, compound 2 mg/kg i.p.", "result": "not substantially changed"}, {"measurement": "circulating IL-6 plasma concentration", "setting": "[1]", "result": "some inhibitory effect"}, {"measurement": "circulating TNF-α plasma concentration", "setting": "[1]", "result": "some inhibitory effect"}, {"measurement": "inhibitory effect on IL-6 production", "setting": "[2]", "result": "not observed"}, {"measurement": "inhibitory effect on TNF-α production", "setting": "[2]", "result": "not observed"}]}]}
